Data reported in US8044042B2, “Thienotriazolodiazepine compound and medicinal use thereof” (Mitsubishi Tanabe Pharma Corporation, priority 2005, dated 2011).
Like-named read-outs stand apart in the source and are kept apart here.

Assays:
[1] = tested on: CD28-dependent T cell growth; test: Mouse T cell proliferation stimulated with anti-CD28 antibody and PMA (tritiumthymidine uptake); type: cell-based; conditions: for IC50: T-cell, BALB/c mouse T cells, 10 ng/mL PMA and 250 ng/mL anti-CD28 antibody, tritiumthymidine uptake, read-out: CD28-dependent T cell growth suppressive action (IC50); for CD28-dependent T cell growth suppressive action (in words): mouse T cells stimulated with PMA and anti-CD28 antibody
Description: The spleen was aseptically isolated from 6-7-week-old male BALB/c mice (CHARLES RIVER LABORATORIES JAPAN, INC.), and splenocyte suspension was prepared using RPMI1640 medium (manufactured by Sigma-Aldrich Ltd.). After hemolysis by a hypotonic treatment using a mixed solution of 0.83% aqueous ammonium chloride and Tris-HCl buffer (pH 7.65) at 9:1, a T cell concentrated fraction was obtained using a T cell concentrated column (manufactured by R&D systems). A cell suspension prepared using RPMI1640 medium containing 10% fetal calf serum (FCS, manufactured by Sigma-Aldrich Ltd.) was added to a flat-bottomed 96 well microtest plate (manufactured by Becton, Dickinson and Company) at 5×10^5 cells/well. Furthermore, a test compound diluted with a medium to the final concentration of 1-10000 nmol/L, 10 ng/mL PMA (manufactured by Sigma-Aldrich Ltd.) and 250 ng/mL anti-CD28 antibody (manufactured by BD pharmingen) were added, and the mixture was cultured under the conditions of 37° C., 5% carbon dioxide, 95% air for 20 hr. After the completion of culture, tritiumthymidine (specific activity: […], manufactured by MP Biochemicals) was added at 18.5 kBq/well, and the mixture was further cultured for 4 hr. Then, the cells were recovered in a glass fiber filter using a cell harvester (manufactured by Molecular Devices Corp.), the radioactivity taken into the cells was measured using a plate scintillation counter (microbeta 1460, manufactured by PerkinElmer), based on which the mouse T cell growth induced by stimulation with PMA and anti-CD28 antibody was measured. To be specific, suppressing rate (%)=(1−(radioactivity (cpm) of well added with test compound)/(radioactivity (cpm) of well without addition of test compound))×100 was calculated from the average amount of tritiumthymidine uptake (cpm) of T cells in each well added with various concentrations of test compound. In addition, based on the dose response curve obtained by plotting the average tritiumthymidine uptake amount (cpm) or suppressing rate on the vertical axis and the concentration on the transverse axis, the concentration of the compound (IC50) suppressing the value to 50% of that of the control group was determined by nonlinear regression.

[2] = tested on: TYPE II Collagen-Induced Arthritis in DBA/1J Mouse; test: Type II collagen-induced arthritis in DBA/1J mouse; type: in vivo; conditions: 840 h
Description: Bovine Type II collagen (purchased from collagen technical workshop) (100-200 μg) was mixed with complete Freund's adjuvant (manufactured by Sigma-Aldrich Ltd.) containing killed tuberculosis H37Ra. Using the resulting emulsion, 6 to 7-week-old male DBA/1J mice (CHARLES RIVER LABORATORIES JAPAN, INC.) were subcutaneously immunized at the tail root twice at 3 week intervals, whereby arthritis was developed. A test compound was suspended or dissolved in 0.5% carboxymethylcellulose (manufactured by Sigma-Aldrich Ltd.), and repetitively administered orally at a dose of 0.1-30 mg/kg body weight using an oral gavage needle for 2 weeks from the day of booster. As to this model, the symptoms of arthritis of four limbs were evaluated based on the following judgment criteria using the scores of from 0 to 4. The arthritis score of each mouse was shown by the total of the scores of four limbs (maximum: 16 points).
As regards the arthritis score, each group (n=5-6) was evaluated using an average value and mean error, with a group administered only with a vehicle being control, and Mann-Whitney U test was used for statistical analysis, wherein p value of 0.05 or below was determined to be significant. In the following, the suppressive action of the compound of the present invention on mouse collagen induced arthritis is shown by the suppressing rate (%) (1−(average arthritis score of compound administration group)/(average arthritis score of control group)×100) calculated from the average arthritis score at 35 days after the primary immunization.

[3] = tested on: Lupus Nephritis in MRL/MpJ-lpr/lpr Mouse; test: Lupus nephritis in spontaneous systemic lupus erythematosus model MRL/MpJ-lpr/lpr mouse; type: in vivo; conditions: for urine protein score (mean ± SE): 4 weeks after administration, medium group 2.8 ± 0.2, P <0.05
Description: The compound of the present invention or a pharmaceutically acceptable salt thereof was suspended or dissolved in 0.5% carboxymethylcellulose, and repetitively administered orally to male MRL/MpJ-lpr/lpr mice at 16 weeks after birth (CHARLES RIVER LABORATORIES JAPAN, INC.), that had developed lupus nephritis, at a dose of 1 and 3 mg/kg body weight for 4 weeks using an oral gavage needle. During the dosing period, urine-protein level was scored once a week using Ames urine test paper (Albustix (registered trademark), Bayer, Ltd.•Sankyo Corp.). As regards the urine protein levels, each group (n=10) was evaluated using an average value and mean error, with a group administered only with a vehicle being control, and Dunnett's test was used for statistical analysis, wherein p value of 0.05 or below was determined to be significant.

[4] = tested on: Biphasic Auricular Edema in Egg Albumin-Induced Mouse; test: Egg albumin-induced mouse biphasic auricular edema; type: in vivo; conditions: for suppressing rate (%) of auricular edema: 10 mg/kg oral for 3 days, 24 hr later, P <0.05; for suppressive action on edema (in words): 10 mg/kg, 24 hr after induction with egg albumin
Description: Using saline (0.5 ml) containing egg albumin (10 μg, manufactured by Sigma-Aldrich Ltd.) and 1 mg of aluminum hydroxide gel, 6 to 7-week-old male BALB/c mice (CHARLES RIVER LABORATORIES JAPAN, INC.) were intraperitoneally immunized. Two weeks later, egg albumin (1.25 μg) was intradermally injected into the auricle of the mice for challenge, whereby biphasic auricular edema was induced 1 hr and 24 hr after the challenge. The compound of the present invention or a pharmaceutically acceptable salt thereof was suspended or dissolved in 0.5% carboxymethylcellulose, and repetitively administered orally at a dose of 0.01-30 mg/kg body weight for 3 days, from 2 days before the antigen challenge to the day of challenge, using an oral gavage needle. As for this model, the thickness of the auricle of the mouse was measured using a dial gauge (manufactured by Ozaki MFG. Co. Ltd.) and used as an index of auricular edema. As regards the thickness of the auricle, each group (n=8) was evaluated using an average value and mean error, with a group administered only with a vehicle being control, and t-test was used for statistical analysis, wherein p value of 0.05 or below was determined to be significant.

[5] = tested on: Mouse Graft-Versus-Host Reaction (GvHR); test: Mouse graft-versus-host reaction (GvHR); type: in vivo; conditions: 30 mg/kg oral for 28 days from splenocyte injection; P <0.05 vs vehicle
Description: Cyclophosphamide (manufactured by Shionogi & Co., Ltd.) is administered to male BDF1 recipient mouse (8-week-old, CHARLES RIVER LABORATORIES JAPAN, INC.) at a dose of 300 mg/kg from the tail vein as a pretreatment at 24 hr prior to injection of spleen cells. The spleen was aseptically isolated from male C57BL/6 donor mouse (8-week-old, CHARLES RIVER LABORATORIES JAPAN, INC.), minced in RPMI1640 medium (manufactured by Sigma-Aldrich Ltd.), and passed through a stainless mesh to give a splenocyte single cell suspension. After removal of red blood cells by a hypotonic treatment using a mixed solution of 0.83% aqueous ammonium chloride and Tris-HCl buffer (pH 7.65) at 9:1, splenocytes were washed and suspended in physiological saline to give a splenocyte suspension. The prepared cells were injected at 1×10^8 cells/mouse into the tail vein to induce acute GvHR. The compound of the present invention or a pharmaceutically acceptable salt thereof was suspended or dissolved in 0.5% carboxymethylcellulose, and repetitively administered orally at a dose of 3-30 mg/kg body weight for 28 days from the day of splenocyte injection, and the influence on the survival time was evaluated. After induction of acute GvHR, the survival of each individual was determined every day, and the day of confirmed death was taken as the survival time of each individual. As for the survival time, log-rank test analysis was performed using the group administered with vehicle alone as a control, and the multiplicity was adjusted by the Holm's method, wherein p value of 0.05 or below was determined to be significant.

[6] = tested on: Mouse Skin Allograft Survival; test: Mouse skin allograft survival; type: in vivo; conditions: for median survival time of skin graft: vehicle 9.5
Description: A tail skin graft (4×7 mm) of 5- to 7-week-old male AKR mouse (KYUDO Co. Ltd. was) was transplanted on the back of 5- to 7-week-old male C3H mouse (CHARLES RIVER LABORATORIES JAPAN, INC.), covered with aseptic gauze and bandaged. The bandage was removed at day 6 from the transplantation, and the graft was observed every day up to rejection. The rejection of the skin graft was determined to be the time point when 90% or more of the epithelium of the graft turned brown due to necrosis. The number of days from the transplantation to the rejection was taken as the survival time of the graft. The compound of the present invention or a pharmaceutically acceptable salt thereof was suspended or dissolved in 0.5% carboxymethylcellulose, and repetitively administered orally at a dose of 0.3-100 mg/kg body weight once a day for 14 days from the day of transplantation. As for the graft survival time, generalized Wilcoxon test analysis was performed using the group administered with vehicle alone as a control, and the multiplicity was adjusted by the Holm's method, wherein p value of 0.05 or below was determined to be significant.

[7] = tested on: Experimental Autoimmune Encephalomyelitis in SJL/J Mouse; test: Experimental autoimmune encephalomyelitis in SJL/J mouse; type: in vivo; conditions: 30 mg/kg oral, 3 weeks from immunization; average EAE score at 14 days after immunization; P <0.05
Description: The 139th-151st peptides (50 μg) of rat-derived proteolipid protein (manufactured by Bachem) was mixed with complete Freund's adjuvant containing killed tuberculosis H37Ra. Using the resulting emulsion, 10-week-old female SJL/J mice (CHARLES RIVER LABORATORIES JAPAN, INC.) were subcutaneously immunized on the back, whereby experimental autoimmune encephalomyelitis (EAE) was developed. The compound of the present invention or a pharmaceutically acceptable salt thereof was suspended or dissolved in 0.5% carboxymethylcellulose (manufactured by Sigma-Aldrich Ltd.), and repetitively administered orally at a dose of 3-30 mg/kg body weight using an oral gavage needle for 3 weeks from the day of immunization. As to this model, the symptoms of EAE were evaluated based on the following judgment criteria using the scores of from 0 to 5.
As regards the EAE score, each group (n=10) was evaluated using an average value and mean error, with a group administered only with a vehicle being control, and Mann-Whitney U test was used for statistical analysis, wherein p value of 0.05 or below was determined to be significant. In the following, the suppressive action of the compound of the present invention on EAE is shown by the suppressing rate (%) calculated from the average EAE score at 14 days after the immunization. […] From the results, the compound is considered effective for encephalomyelitis, multiple sclerosis and the like.

[8] = po, read-out: suppressing rate (%) of arthritis score

Row | Structure (SMILES) | IC50 [1] [nM] | CD28-dependent T cell growth suppressive action (in words) [1] | inhibition in vivo at 3 mg/kg [2, 8] [%] | urine protein score (mean ± SE) ([3]; 1 mg/kg oral) | urine protein score (mean ± SE) ([3]; 3 mg/kg oral) | effect on urine protein score (in words) ([3]; at not less than 1 mg/kg, oral for 4 weeks, compared to the control group) | inhibition in vivo at 3 mg/kg ([2]; 3 mg/kg oral, 2 weeks from booster, average arthritis score at 35 days after primary immunization, P <0.05, read-out: suppressing rate (%) of arthritis score) [%] | suppressing rate (%) of auricular edema [4] [%] | suppressive action on edema (in words) [4] | median survival time [5] [days] | median survival time of skin graft ([6]; 30 mg/kg oral once a day for 14 days, P 0.13) [days] | effect on graft survival time (in words) ([6]; 100 mg/kg) | median survival time of skin graft ([6]; 100 mg/kg oral once a day for 14 days, P <0.05) [days] | inhibition in vivo at 10 mg/kg [2, 8] [%] | suppressing rate (%) of EAE score [7] [%]
1 | COC(=O)C[C@@H]1N=C(c2ccc(Cl)cc2)c2c(sc(C)c2C)-n2c(C)nnc21 [Example 1, Methyl (S)-{4-(4-chlorophenyl)-2,3,9-trimethyl-6H-thieno[3,2-f][1,2,4]triazolo[4,3-a][1,4]diazepin-6-yl}acetate] | 38 | have a CD28-dependent T cell growth suppressive action | 66.1 | 1.8 ± 0.3 | 1.6 ± 0.2 | significantly decreased the urine protein score | – | – | – | – | – | – | – | – | –
2 | COC(=O)C[C@@H]1N=C(c2ccc(-c3ccc(OC)cc3)cc2)c2c(sc(CO)c2C)-n2c(C)nnc21 [Example 234, Methyl (S)-{2-hydroxymethyl-4-(4′-methoxybiphenyl-4-yl)-3,9-dimethyl-6H-thieno[3,2-f][1,2,4]triazolo[4,3-a][1,4]diazepin-6-yl}acetate] | 97 | have a CD28-dependent T cell growth suppressive action | – | – | – | – | 53.6 | 35.8 | significant suppressive action on edema | 32 | 11 | significantly prolonged the graft survival time | 14 | – | –
3 | Cc1sc2c(c1C)C(c1ccc(NCc3ccccc3)cc1)=NCc1nnc(C)n1-2 [Example 335, 4-(4-benzylaminophenyl)-2,3,9-trimethyl-6H-thieno[3,2-f][1,2,4]triazolo[4,3-a][1,4]diazepine] | 190 | have a CD28-dependent T cell growth suppressive action | – | – | – | – | – | 45.1 | significant suppressive action on edema | 36.5 | – | – | – | 65.5 | 53
